# Laboratory results: patent US20180028478A1, “ANTIVIRAL COMPOSITIONS DIRECTED AGAINST THE NUCLEOPROTEIN OF INFLUENZA VIRUSES” (priority 2011, published 2018)
# Values joined by “and” are separate entries in the source; they are usually repeats but may differ in a detail not shown here. Equal entries are not always repeated. Where two headings read alike, the source gives them in different places.
# Legend:
# Influenza A/WSN/33 virus = test: microbe, parasite or virus in culture; format: cell-based, Influenza A/WSN/33 (H1N1); settings: for IC50: Influenza A virus, WSN, MDCK, read-out: IC50 decrease × 10 viral titer/control (n = 2)
# H3N2 virus A/Udorn = settings: MTT 24 h; A/Udorn MOI 10^−1; 100 μM
# Influenza A/PR8/34 virus = system: Influenza A/PR8/34 virus; set-up: species or system Balb/C mice; settings: mouse, in vivo
smiles,measurement,setting,value
COc1ccc2cc(C(C)C(=O)O)ccc2c1 (stereo not shown) [Naproxen],IC10 decrease × 10 viral titer/control (n = 2),Influenza A/WSN/33 virus,~50 μM
same,decrease of viral titers with concentration,Influenza A/WSN/33 virus,"the greater the concentration in Naproxen, the quicker the decrease of the viral titers"
same,"viral titer decrease, Naproxen vs Tamiflu",Influenza A/WSN/33 virus,viral titer decreases similarly
same,IC50,Influenza A/WSN/33 virus; 48 h,~10 µM
same,Protection %,H3N2 virus A/Udorn,85 ± 2%
same,infectious outbreaks in the cell layer and dead cells,H1N1 WSN strain,reduced the number and the size of the infectious outbreaks
same,localisation of nucleoprotein,H1N1 WSN strain,has not modified the localisation of nucleoprotein
same,weight loss,Influenza A/PR8/34 virus,19%
same,decrease factor of viral titer in lungs vs untreated infected controls,Influenza A/PR8/34 virus; ip,~42 factor
"CCOC(=O)C1=C[C@@H](OC(CC)CC)[C@H](NC(C)=O)[C@@H](N)C1 [Tamiflu, oseltamivir]","viral titer decrease, Naproxen vs Tamiflu",Influenza A/WSN/33 virus,viral titer decreases similarly
same,decrease factor of viral titer in lungs vs untreated infected controls,Influenza A/PR8/34 virus,~100 factor
O=C(O)c1ccc(C=Nn2c(S)nnc2-c2ccc(Cl)cc2Cl)cc1 [compound 59],IC10 decrease × 10 viral titer/control (n = 2),Influenza A/WSN/33 virus,~30 μM
same,Viral titer Pfu/ml MDCK cells,Influenza A/WSN/33 virus; 50 μM,5.5 ± 2.5 × 10^5 Pfu/ml
same,IC50,Influenza A/WSN/33 virus; 24 h,~5 µM
Cc1ccc(-c2nnc(S)n2/N=C/c2ccc(C(=O)O)cc2)cc1 [compound 72],IC10 decrease × 10 viral titer/control (n = 2),Influenza A/WSN/33 virus,~20 μM and ~35 μM
same,Viral titer Pfu/ml MDCK cells,Influenza A/WSN/33 virus; 50 μM,7.6 ± 4.0 × 10^5 Pfu/ml and 3.9 ± 1.6 × 10^6 Pfu/ml
same,IC50,Influenza A/WSN/33 virus; 24 h,~5 µM
COc1ccc(-c2nnc(S)n2N=Cc2ccc(C(=O)O)cc2)cc1 [compound 88],IC10 decrease × 10 viral titer/control (n = 2),Influenza A/WSN/33 virus,No effect
same,Viral titer Pfu/ml MDCK cells,Influenza A/WSN/33 virus; 5 μM,1-4 × 10^7 Pfu/ml
